# Experiments:
# [1] = system: phosphorylation of mTOR in hPASMCs; test: Western blot of mTOR phosphorylation in PDGF-stimulated hPASMCs; conditions: concentration not given, 1 h, then PDGF 10 ng/mL 1 h
# hPASMCs = test: Cell proliferation assay (Cell Counting Kit-8) of PDGF-stimulated hPASMCs; conditions: 0.1–10 µM compound, PDGF 10 ng/mL, 72 h
# Experimental: Human pulmonary artery SMCs (hPASMCs) were cultured in Humedia-SG2 (Kurabo, Osaka, Japan) until stimulation and were plated in 96-well plates at 2.5 × 10^3 cells/well in serum-starved medium (Humedia-SB supplemented with 1% fetal bovine serum [FBS] and antibiotics [Kurabo]). […] The proliferation of hPASMCs was evaluated using a Cell Counting Kit-8 (Dojindo Laboratories, Kumamoto, Japan).
# hPASMCs were purchased from Kurabo (Osaka, Japan). The cells were cultured in
# 6-cm Petri dishes coated with fibronectin (Corning, Corning, NY, USA) and Humedia-
# SG2 (Kurabo) at 37 °C and 5% CO2 in a humidified air incubator until the other assays
# 2.4. Cell Proliferation Analysis
# hPASMCs were cultured in Humedia-SG2 (Kurabo) until stimulation and were
# plated in 96-well plates at 2.5 × 10^3 cells/well in serum-starved medium (Humedia-SB sup-
# plemented with 1% FBS and antibiotics [Kurabo]). Then, hPASMCs were incubated with
# The proliferation of hPASMCs was evaluated using Cell Counting
# Kit-8 assays (Dojindo Laboratories, Kumamoto, Japan) according to the manufacturer’s
# [2] = system: phosphorylated MYPT1 in hPASMCs; test: Western blot of MYPT1 phosphorylation (Thr696) in ET-1-stimulated hPASMCs; assay type: cell-based, human; conditions: compound 1 hour, then ET-1 0.1 µM 1 hour, ET-1 did not increase p-MYPT1
# [3] = system: phosphorylation of MLC in hPASMCs; test: Western blot of MLC phosphorylation in ET-1-stimulated hPASMCs; conditions: then ET-1 0.1 µM 1 h
# Experimental: Before stimulation, 2 × 10^5 hPASMCs were cultured with serum-starved medium (Humedia-SB containing 1% FBS and antibiotics [Kurabo]), followed by stimulation with serum-starved medium containing 0.1 µM ET-1 or 10 ng/mL recombinant PDGF and treatment with different reagents. The isolated proteins were separated and analyzed by western blotting.
# proteins were then isolated with RIPA buffer (25 mM Tris-HCl [pH 7.6], 150 mM NaCl,
# 1% NP-40, 1% sodium deoxycholate, and 0.1% sodium dodecyl sulfate) containing prote-
# ase inhibitors (Protease Inhibitor Cocktail; Nacalai Tesque, Kyoto, Japan) and phosphatase
# inhibitors (PhosSTOP; Roche, Basel, Switzerland). Proteins from each sample were sepa-
# rated by sodium dodecyl sulfate polyacrylamide gel electrophoresis and transferred onto
# polyvinylidene difluoride (PVDF) membranes. The membranes were then blocked with
# 5% bovine serum albumin diluted in Tris-buffered solution containing 0.05% Tween 20
# (TBS-T) for 1 hour at room temperature. The blocked membranes were incubated with
# primary antibodies at 4°C overnight, followed by washing with TBS-T. The membranes
# were then incubated with a secondary antibody for 1 h at room temperature. Bands were
# visualized by a chemiluminescence reaction using Pierce ECL Western Blotting (Thermo
# Fisher Scientific, Waltham, MA, CSA) and LAS-4000 (Fuji Film, Tokyo, Japan).
# tein expression was normalized to that of -actin.
Compound,Phosphorylation of mTOR (phospho-/total mTOR) [1],Proliferation of hPASMCs induced by PDGF (hPASMCs),"Ratio of p-MYPT1 (Thr696) to total MYPT1, difference versus ET-1 without compound [2]","Phosphorylation of MLC (p-MLC/total MLC) ([3]; concentration not given, 1 h)",Phosphorylation of MLC (p-MLC/total MLC) ([3]; 10 μM compound 1 h)
O=c1cc(N2CCOCC2)oc2c(-c3ccccc3)cccc12 [LY294002],significantly reduced,suppressed the proliferation of hPASMCs induced by stimulation with PDGF in a concentration-dependent manner,,,
COc1ccccc1Oc1c(NS(=O)(=O)c2ccc(C(C)(C)C)cc2)nc(-c2ncccn2)nc1OCCO [Bosentan],,,insignificant,the difference did not reach significant levels,
O=S(=O)(c1cccc2cnccc12)N1CCCNCC1 [Fasudil],did not have a suppressive effect,observed only at the highest concentration,,,significantly decreased

# Reference: publication PMC8750965, “The Isoquinoline-Sulfonamide Compound H-1337 Attenuates SU5416/Hypoxia-Induced Pulmonary Arterial Hypertension in Rats” (Cells, 2021)
